Assay results as given in ChEMBL document CHEMBL1667780, “Identification of a novel small molecule targeting UQCRB of mitochondrial complex III and its anti-angiogenic activity” (Bioorg Med Chem Lett, 2011).
The source made the active and inactive calls. The calls are words filed in the database; no cut-off is given here.

Columns and labels:
[1] = target: T1, Cytochrome b-c1 complex subunit 7 (Homo sapiens) (UniProt P14927); assay: Binding affinity to UQCRB in HUVEC at 30 uM after 24 hrs by ter-caumarin competitive binding assay; type: cell-based
T1 sequence (whole entry): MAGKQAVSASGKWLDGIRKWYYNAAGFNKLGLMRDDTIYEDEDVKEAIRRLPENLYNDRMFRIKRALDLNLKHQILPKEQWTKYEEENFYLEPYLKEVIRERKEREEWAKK

[2] = target: T1, Cytochrome b-c1 complex subunit 7 (Homo sapiens); assay: Binding affinity to human UQCRB at 25 uM by surface plasmon resonance assay

With `C/C1=C\C[C@]2(C)C(=O)C(O)=C([C@H](C)CO)[C@H]2C/C=C(\C)[C@@H](O)CC/C(C)=C/CC1` the Activity [1] was “Active” and the Activity [2] was “Active”.
